From EP0847397B1, “WATER-SOLUBLE C-RING ANALOGUES OF 20 (S)-CAMPTOTHECIN” (DR. REDDY'S RESEARCH FOUNDATION, priority 1996, dated 1997)

Tests used:
[1] = test system: NCI's 60 human tumor cell line assay; assay: cells; assay type: cell-based; conditions: 60 cell, 48 h, read-out: IC50 (mean GI50 against NCI's 60 human tumor cell line assay)
[2] = Lactone stability in whole blood (HPLC); assay type: in vitro ADME; conditions: 100 μM, 37°C, lactone peak area relative to zero time (100%); for Lactone Stability in Whole Blood (after 3 hours): 180 min
Description: 2. Lactone Stability in whole blood:
2 ml of blood from a healthy volunteer was collected in a tube containing 40 µl of heparin (572 IU) to prevent coagulation, 4 mM and 40 µM working solutions of the drug in DMSO were prepared and added to aliquots of whole blood to give final concentration of 100 µM and 1 µM respectively. The drug is incubated in whole blood at 37°C and 20 µl samples are collected into 180 µl of chilled methanol (-30°C) at different time intervals (0, 1, 2 & 3 hrs). Vortex and then centrifuge at 11000 rpm for 3 min in a microcentrifuge at room temperature. Dilute 100 µl of the supernatant with water to 300-500 µl depending upon the signal response (UV for 100 µM concentration and fluoroscence for 1 µM concentration) of the compound. 200 µl of the diluted sample is injected on to the HPLC column previously equilibrated with the mobile phase. The area under peak corrsponding to lactone forms is measured. Zero time peak area is taken as 100%, and the proportion of lactone peak area at different time points is calculated to determine the equilibrium lactone stability as obtained by consistent lactone proportion over two successive time points. (Biochemistry, 1994; 33:10325-10336 and J. Pharm. Sci., 1995; 84:518-519).

With `CCc1c2c(nc3ccccc13)-c1cc3c(c(=O)n1C2OCC(F)(F)F)COC(=O)[C@]3(O)CC` (stereo partly drawn) [7-Ethyl-5-trifluoroethoxycamptothecin] the mean GI50 [1] was 7.41 µM.
`CC[C@@]1(O)C(=O)OCc2c1cc1n(c2=O)C(OCCOC)c2cc3c([N+](=O)[O-])cccc3nc2-1` (stereo partly drawn) [9-Nitro-5-methoxyethoxy camptothecin] gave a mean GI50 [1] of 2.04 µM.
For `CCOC1c2cc3ccccc3nc2-c2cc3c(c(=O)n21)COC(=O)[C@]3(O)CC` (stereo partly drawn) [Example 9, 5-Ethoxycamptothecin], the mean GI50 [1] was 9.54 µM.
With `CCOC1c2cc3c(O)cccc3nc2-c2cc3c(c(=O)n21)COC(=O)[C@]3(O)CC` (single isomer, unassigned) [Example 11 Diastereomer A, 5-Ethoxy-9-hydroxycamptothecin] the remaining at 3 h, 100 µM ([2]; human, whole blood, read-out: Lactone Stability in Whole Blood (after 3 hours)) was 3.73 ± 1.5%.
Compound `CC[C@@]1(O)C(=O)OCc2c1cc1n(c2=O)C(OC)c2cc3c(N)cccc3nc2-1` (stereo partly drawn) [Example 20, 9-amino-5-methoxycamptothecin] has a mean GI50 [1] of 6.76 µM.
In the case of `CC[C@@]1(O)C(=O)OCc2c1cc1n(c2=O)C(O)c2cc3cccc([N+](=O)[O-])c3nc2-1` (stereo partly drawn) [Example 23, 12-Nitro-5-hydroxy camptothecin], the mean GI50 [1] is reported as > 30 µM.
For `CCOC1c2cc3c(O)cccc3nc2-c2cc3c(c(=O)n21)COC(=O)[C@]3(O)CC` (single isomer, unassigned) [Example 11 Diastereomer B, 5-Ethoxy-9-hydroxycamptothecin], the “Lactone Stability in Whole Blood (after 3 hours)” value (from here on “Lactone Stability in Whole Blood”) [2] was 6.15±2.53.
`CCOC1c2c(nc3ccccc3c2CC)-c2cc3c(c(=O)n21)COC(=O)[C@]3(O)CC` (stereo partly drawn) [Example 3, 5-Ethoxy-7-ethylcamptothecin] showed a mean GI50 [1] of 1.41 µM.
In the case of `CCCCOC1c2cc3ccccc3nc2-c2cc3c(c(=O)n21)COC(=O)[C@]3(O)CC` (stereo partly drawn) [Example 10, 5-butoxycamptothecin], the mean GI50 [1] is reported as 6.16 µM.
With `CC[C@@]1(O)C(=O)OCc2c1cc1n(c2=O)C(OCC(F)(F)F)c2cc3cc(O)ccc3nc2-1` (single isomer, unassigned) [Example 27 Diastereomer B, 10-Hydroxy-5-trifluoroethoxycamptothecin] the “Lactone Stability in Whole Blood” value [2] was 11.9±2.91.
Compound `CCc1c2c(nc3ccccc13)-c1cc3c(c(=O)n1C2OCCN(C)C)COC(=O)[C@]3(O)CC` (stereo partly drawn) [Example 41, 5-(2'-dimethylaminoethoxy)-7-ethylcamptothecin] has a mean GI50 [1] of 13.8 µM.
With `CC[C@@]1(O)C(=O)OCc2c1cc1n(c2=O)C(OCC(F)(F)F)c2cc3cc(O)ccc3nc2-1` (single isomer, unassigned) [Example 27 Diastereomer A, 10-Hydroxy-5-trifluoroethoxycamptothecin] the “Lactone Stability in Whole Blood” value [2] was 4.58±1.72.
Compound `CC[C@@]1(O)C(=O)OCc2c1cc1n(c2=O)C(OCCCl)c2cc3ccccc3nc2-1` (stereo partly drawn) [Example 24, 5-(2'-Chloroethoxy)camptothecin] has a mean GI50 [1] of 4.57 µM.
For `CC[C@@]1(O)C(=O)OCc2c1cc1n(c2=O)C(OCCO)c2cc3cc(O)ccc3nc2-1` (stereo partly drawn) [Example 33, 5-(2'-Hydroxyethoxy)-10-hydroxycamptothecin], the mean GI50 [1] was 8.12 µM.
In the case of `CC[C@@]1(O)C(=O)OCc2c1cc1n(c2=O)C(OCCN)c2cc3ccccc3nc2-1` (stereo partly drawn) [Example 36, 5-(2'-aminoethoxy) camptothecin], the mean GI50 [1] is reported as 30 µM.
With `CCOC1c2cc3c(OC)cccc3nc2-c2cc3c(c(=O)n21)COC(=O)[C@]3(O)CC` (stereo partly drawn) [Example 5, 5-Ethoxy-9-methoxycamptothecin] the mean GI50 [1] was 2.45 µM.
For `CC[C@@]1(O)C(=O)OCc2c1cc1n(c2=O)C(OCCF)c2cc3ccccc3nc2-1` (stereo partly drawn) [Example 29, 5-(2'-fluoroethoxy)camptothecin], the mean GI50 [1] was 1.58 µM.
For `CC[C@@]1(O)C(=O)OCc2c1cc1n(c2=O)C(OC)c2cc3ccccc3nc2-1` (stereo partly drawn) [Example 1, 5-methoxycamptothecin], the mean GI50 [1] was 8.5 µM.
With `CCc1c2c(nc3ccccc13)-c1cc3c(c(=O)n1C2OCCCl)COC(=O)[C@]3(O)CC` (stereo partly drawn) [Example 40, 5-(2'-chloroethoxy)-7-ethylcamptothecin] the mean GI50 [1] was 2.75 µM.
In the case of `CCc1c2c(nc3ccccc13)-c1cc3c(c(=O)n1C2OCCF)COC(=O)[C@]3(O)CC` (stereo partly drawn) [Example 31, 5-(2'-Fluoroethoxy)-7-ethylcamptothecin], the mean GI50 [1] is reported as 4.36 µM.
In the case of `CCc1c2c(nc3ccccc13)-c1cc3c(c(=O)n1C2OCCCN(C)C)COC(=O)[C@]3(O)CC` (stereo partly drawn) [Example 38, 5-(3'-dimethylaminopropoxy)-7-ethylcamptothecin], the mean GI50 [1] is reported as > 30 µM.
With `CCc1c2c(nc3ccccc13)-c1cc3c(c(=O)n1C2OCCN1CCCCC1)COC(=O)[C@]3(O)CC` (stereo partly drawn) [7-Ethyl-5-piperidinoethoxy camptothecin] the mean GI50 [1] was > 30 µM.
In the case of `CCOC1c2cc3cccc([N+](=O)[O-])c3nc2-c2cc3c(c(=O)n21)COC(=O)[C@]3(O)CC` (stereo partly drawn) [Example 16, 12-Nitro-5-ethoxycamptothecin], the mean GI50 [1] is reported as > 30 µM.
`CCOC1c2c(nc3cccc(OC)c3c2CC)-c2cc3c(c(=O)n21)COC(=O)[C@]3(O)CC` (stereo partly drawn) [Example 7, 5-Ethoxy-9-methoxy-7-ethylcamptothecin] gave a mean GI50 [1] of 2.13 µM.
